Assay: xn = mol fraction of the nth substance listed
Details: 100 kPa

CCCCCCCC[n+]1ccccc1.[Br-] + CC(C)[C@H](N)C(=O)O + O
Details | electrical conductivity [S/m]
288.15 K, x2 = 0.0008935, x1 = 0.007418 | 1.31
288.15 K, x2 = 0.0008938, x1 = 0.007086 | 1.29
288.15 K, x2 = 0.0008942, x1 = 0.006704 | 1.26
288.15 K, x2 = 0.0008945, x1 = 0.006295 | 1.23
288.15 K, x2 = 0.0008949, x1 = 0.005851 | 1.19
288.15 K, x2 = 0.0008954, x1 = 0.005368 | 1.14
288.15 K, x2 = 0.0008958, x1 = 0.004839 | 1.08
288.15 K, x2 = 0.0008964, x1 = 0.004257 | 1.01
288.15 K, x2 = 0.0008969, x1 = 0.003625 | 0.906
288.15 K, x2 = 0.0008976, x1 = 0.002914 | 0.777
288.15 K, x2 = 0.0008982, x1 = 0.002179 | 0.624
288.15 K, x2 = 0.0008986, x1 = 0.001732 | 0.519
288.15 K, x2 = 0.0008991, x1 = 0.001237 | 0.396
288.15 K, x2 = 0.0008995, x1 = 0.0007528 | 0.27
288.15 K, x2 = 0.001786, x1 = 0.006884 | 1.26
288.15 K, x2 = 0.001787, x1 = 0.006555 | 1.23
288.15 K, x2 = 0.001788, x1 = 0.005847 | 1.16
288.15 K, x2 = 0.001788, x1 = 0.006214 | 1.19
288.15 K, x2 = 0.001789, x1 = 0.005457 | 1.12
288.15 K, x2 = 0.00179, x1 = 0.005019 | 1.08
288.15 K, x2 = 0.001791, x1 = 0.004547 | 1.02
288.15 K, x2 = 0.001792, x1 = 0.00402 | 0.951
288.15 K, x2 = 0.001793, x1 = 0.003446 | 0.852
288.15 K, x2 = 0.001794, x1 = 0.002816 | 0.736
288.15 K, x2 = 0.001795, x1 = 0.002155 | 0.601
288.15 K, x2 = 0.001796, x1 = 0.001258 | 0.39
288.15 K, x2 = 0.001796, x1 = 0.001677 | 0.494
288.15 K, x2 = 0.001797, x1 = 0.000791 | 0.274
293.15 K, x2 = 0.0008935, x1 = 0.007404 | 1.5
293.15 K, x2 = 0.0008938, x1 = 0.007072 | 1.47
293.15 K, x2 = 0.0008942, x1 = 0.00669 | 1.43
293.15 K, x2 = 0.0008945, x1 = 0.006282 | 1.39
293.15 K, x2 = 0.0008949, x1 = 0.005839 | 1.34
293.15 K, x2 = 0.0008954, x1 = 0.005359 | 1.29
293.15 K, x2 = 0.0008958, x1 = 0.00483 | 1.23
293.15 K, x2 = 0.0008964, x1 = 0.004248 | 1.15
293.15 K, x2 = 0.0008969, x1 = 0.003618 | 1.03
293.15 K, x2 = 0.0008976, x1 = 0.002909 | 0.878
293.15 K, x2 = 0.0008982, x1 = 0.002176 | 0.703
293.15 K, x2 = 0.0008986, x1 = 0.00173 | 0.585
293.15 K, x2 = 0.0008991, x1 = 0.001235 | 0.446
293.15 K, x2 = 0.0008995, x1 = 0.0007528 | 0.302
293.15 K, x2 = 0.001786, x1 = 0.006871 | 1.44
293.15 K, x2 = 0.001787, x1 = 0.006543 | 1.4
293.15 K, x2 = 0.001788, x1 = 0.005835 | 1.32
293.15 K, x2 = 0.001788, x1 = 0.006203 | 1.36
293.15 K, x2 = 0.001789, x1 = 0.005446 | 1.28
293.15 K, x2 = 0.00179, x1 = 0.00501 | 1.23
293.15 K, x2 = 0.001791, x1 = 0.004538 | 1.16
293.15 K, x2 = 0.001792, x1 = 0.004013 | 1.08
293.15 K, x2 = 0.001793, x1 = 0.003439 | 0.962
293.15 K, x2 = 0.001794, x1 = 0.002811 | 0.835
293.15 K, x2 = 0.001795, x1 = 0.002152 | 0.681
293.15 K, x2 = 0.001796, x1 = 0.001254 | 0.441
293.15 K, x2 = 0.001796, x1 = 0.001673 | 0.556
293.15 K, x2 = 0.001797, x1 = 0.0007892 | 0.308
298.15 K, x2 = 0.0008935, x1 = 0.007393 | 1.7
298.15 K, x2 = 0.0008938, x1 = 0.007063 | 1.66
298.15 K, x2 = 0.0008942, x1 = 0.006681 | 1.62
298.15 K, x2 = 0.0008945, x1 = 0.006273 | 1.57
298.15 K, x2 = 0.0008949, x1 = 0.005831 | 1.52
298.15 K, x2 = 0.0008954, x1 = 0.005351 | 1.46
298.15 K, x2 = 0.0008959, x1 = 0.004824 | 1.38
298.15 K, x2 = 0.0008964, x1 = 0.004243 | 1.28
298.15 K, x2 = 0.0008969, x1 = 0.003614 | 1.15
298.15 K, x2 = 0.0008976, x1 = 0.002905 | 0.986
298.15 K, x2 = 0.0008982, x1 = 0.002174 | 0.784
298.15 K, x2 = 0.0008986, x1 = 0.001726 | 0.653
298.15 K, x2 = 0.0008991, x1 = 0.001234 | 0.498
298.15 K, x2 = 0.0008995, x1 = 0.000751 | 0.336
298.15 K, x2 = 0.001786, x1 = 0.006862 | 1.62
298.15 K, x2 = 0.001787, x1 = 0.006534 | 1.58
298.15 K, x2 = 0.001788, x1 = 0.005828 | 1.49
298.15 K, x2 = 0.001788, x1 = 0.006196 | 1.54
298.15 K, x2 = 0.001789, x1 = 0.005439 | 1.44
298.15 K, x2 = 0.00179, x1 = 0.005003 | 1.38
298.15 K, x2 = 0.001791, x1 = 0.004533 | 1.31
298.15 K, x2 = 0.001792, x1 = 0.004009 | 1.21
298.15 K, x2 = 0.001793, x1 = 0.003435 | 1.08
298.15 K, x2 = 0.001794, x1 = 0.002807 | 0.937
298.15 K, x2 = 0.001795, x1 = 0.002148 | 0.761
298.15 K, x2 = 0.001796, x1 = 0.001254 | 0.492
298.15 K, x2 = 0.001796, x1 = 0.001671 | 0.623
298.15 K, x2 = 0.001797, x1 = 0.0007892 | 0.342
303.15 K, x2 = 0.0008935, x1 = 0.007383 | 1.93
303.15 K, x2 = 0.0008938, x1 = 0.007052 | 1.88
303.15 K, x2 = 0.0008942, x1 = 0.006672 | 1.82
303.15 K, x2 = 0.0008946, x1 = 0.006264 | 1.77
303.15 K, x2 = 0.000895, x1 = 0.005822 | 1.7
303.15 K, x2 = 0.0008954, x1 = 0.005343 | 1.63
303.15 K, x2 = 0.0008959, x1 = 0.004817 | 1.54
303.15 K, x2 = 0.0008964, x1 = 0.004238 | 1.43
303.15 K, x2 = 0.0008969, x1 = 0.003609 | 1.28
303.15 K, x2 = 0.0008976, x1 = 0.002902 | 1.1
303.15 K, x2 = 0.0008982, x1 = 0.00217 | 0.864
303.15 K, x2 = 0.0008986, x1 = 0.001725 | 0.717
303.15 K, x2 = 0.0008991, x1 = 0.001232 | 0.553
303.15 K, x2 = 0.0008995, x1 = 0.000751 | 0.372
303.15 K, x2 = 0.001786, x1 = 0.006852 | 1.81
303.15 K, x2 = 0.001787, x1 = 0.006525 | 1.77
303.15 K, x2 = 0.001788, x1 = 0.00582 | 1.67
303.15 K, x2 = 0.001788, x1 = 0.006185 | 1.72
303.15 K, x2 = 0.001789, x1 = 0.005432 | 1.61
303.15 K, x2 = 0.00179, x1 = 0.004996 | 1.54
303.15 K, x2 = 0.001791, x1 = 0.004527 | 1.46
303.15 K, x2 = 0.001792, x1 = 0.004004 | 1.35
303.15 K, x2 = 0.001793, x1 = 0.003429 | 1.21
303.15 K, x2 = 0.001794, x1 = 0.002804 | 1.04
303.15 K, x2 = 0.001795, x1 = 0.002146 | 0.845
303.15 K, x2 = 0.001796, x1 = 0.00167 | 0.691
303.15 K, x2 = 0.001797, x1 = 0.0007874 | 0.379
303.15 K, x2 = 0.001797, x1 = 0.001252 | 0.546
308.15 K, x2 = 0.0008936, x1 = 0.00737 | 2.19
308.15 K, x2 = 0.0008938, x1 = 0.00704 | 2.13
308.15 K, x2 = 0.0008942, x1 = 0.006659 | 2.06
308.15 K, x2 = 0.0008946, x1 = 0.006254 | 1.99
308.15 K, x2 = 0.000895, x1 = 0.005812 | 1.92
308.15 K, x2 = 0.0008954, x1 = 0.005334 | 1.81
308.15 K, x2 = 0.0008959, x1 = 0.004808 | 1.71
308.15 K, x2 = 0.0008964, x1 = 0.00423 | 1.57
308.15 K, x2 = 0.0008969, x1 = 0.003602 | 1.42
308.15 K, x2 = 0.0008976, x1 = 0.002896 | 1.19
308.15 K, x2 = 0.0008982, x1 = 0.002167 | 0.943
308.15 K, x2 = 0.0008986, x1 = 0.001721 | 0.784
308.15 K, x2 = 0.0008991, x1 = 0.00123 | 0.608
308.15 K, x2 = 0.0008995, x1 = 0.0007492 | 0.414
308.15 K, x2 = 0.001786, x1 = 0.006839 | 2.07
308.15 K, x2 = 0.001787, x1 = 0.006512 | 2.02
308.15 K, x2 = 0.001788, x1 = 0.00581 | 1.87
308.15 K, x2 = 0.001788, x1 = 0.006175 | 1.95
308.15 K, x2 = 0.001789, x1 = 0.005421 | 1.79
308.15 K, x2 = 0.00179, x1 = 0.004987 | 1.71
308.15 K, x2 = 0.001791, x1 = 0.004518 | 1.62
308.15 K, x2 = 0.001792, x1 = 0.003997 | 1.48
308.15 K, x2 = 0.001793, x1 = 0.003424 | 1.34
308.15 K, x2 = 0.001794, x1 = 0.002798 | 1.14
308.15 K, x2 = 0.001795, x1 = 0.002143 | 0.914
308.15 K, x2 = 0.001796, x1 = 0.001666 | 0.743
308.15 K, x2 = 0.001797, x1 = 0.0007874 | 0.427
308.15 K, x2 = 0.001797, x1 = 0.001249 | 0.603
